{"source": "PubChem BioAssay (NCI)", "experiment_in_all_cases": "NCI-60 cell line screen, 48 h", "key": {"[1]": {"system": "NCI-H226 lung"}, "[2]": {"system": "NCI-H23 lung"}, "[3]": {"system": "NCI-H460 lung"}, "[4]": {"system": "NCI-H522 lung"}, "[5]": {"system": "NCI/ADR-RES ovarian"}, "[6]": {"system": "OVCAR-3 ovarian"}, "[7]": {"system": "OVCAR-4 ovarian"}, "[8]": {"system": "OVCAR-5 ovarian"}, "[9]": {"system": "OVCAR-8 ovarian"}, "[10]": {"system": "PC-3 prostate"}, "[11]": {"system": "RPMI-8226 leukemia"}, "[12]": {"system": "SF-268 CNS"}, "[13]": {"system": "SF-295 CNS"}, "[14]": {"system": "SF-539 CNS"}, "[15]": {"system": "SK-MEL-2 melanoma"}, "[16]": {"system": "SK-MEL-28 melanoma"}, "[17]": {"system": "SK-MEL-5 melanoma"}, "[18]": {"system": "SK-OV-3 ovarian"}, "[19]": {"system": "SN12C renal"}, "[20]": {"system": "SNB-19 CNS"}, "[21]": {"system": "SNB-75 CNS"}, "[22]": {"system": "SR leukemia"}, "[23]": {"system": "SW-620 colon"}, "[24]": {"system": "T-47D breast"}, "[25]": {"system": "TK-10 renal"}, "[26]": {"system": "U251 CNS"}, "[27]": {"system": "UACC-257 melanoma"}, "[28]": {"system": "UACC-62 melanoma"}, "[29]": {"system": "UO-31 renal"}}, "note": "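Step 1: Grow cells in 96-well plates. Step 2: Expose to compound for 48 hours at 5 concentrations. Step 3: Interpolate endpoints linearly; if unreached, use highest concentration. Abbreviation: GI50, concentration required for 50% inhibition of growth. TGI: total growth inhibition.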", "data": [{"smiles": "COc1ccc(CC(C)=C(c2ccc(OCCN3CCCC3)cc2)c2ccc(OCCN3CCCC3)cc2)cc1", "values": [{"measurement": "TGI", "setting": "[1]", "value": 6.63, "unit": "µM"}, {"measurement": "GI50", "setting": "[2]", "value": 3.49, "unit": "µM"}, {"measurement": "TGI", "setting": "[2]", "value": 6.76, "unit": "µM"}, {"measurement": "GI50", "setting": "[3]", "value": 3.15, "unit": "µM"}, {"measurement": "TGI", "setting": "[3]", "value": 6.45, "unit": "µM"}, {"measurement": "GI50", "setting": "[4]", "value": 3.63, "unit": "µM"}, {"measurement": "TGI", "setting": "[4]", "value": 7.6, "unit": "µM"}, {"measurement": "GI50", "setting": "[5]", "value": 3.7, "unit": "µM"}, {"measurement": "TGI", "setting": "[5]", "value": 7.08, "unit": "µM"}, {"measurement": "GI50", "setting": "[6]", "value": 2680, "unit": "nM"}, {"measurement": "TGI", "setting": "[6]", "value": 5.59, "unit": "µM"}, {"measurement": "GI50", "setting": "[7]", "value": 3.39, "unit": "µM"}, {"measurement": "TGI", "setting": "[7]", "value": 6.9, "unit": "µM"}, {"measurement": "GI50", "setting": "[8]", "value": 3.49, "unit": "µM"}, {"measurement": "TGI", "setting": "[8]", "value": 6.68, "unit": "µM"}, {"measurement": "GI50", "setting": "[9]", "value": 3.64, "unit": "µM"}, {"measurement": "TGI", "setting": "[9]", "value": 7.29, "unit": "µM"}, {"measurement": "GI50", "setting": "[10]", "value": 2990, "unit": "nM"}, {"measurement": "TGI", "setting": "[10]", "value": 7.25, "unit": "µM"}, {"measurement": "GI50", "setting": "[11]", "value": 2120, "unit": "nM"}, {"measurement": "TGI", "setting": "[11]", "value": 9.37, "unit": "µM"}, {"measurement": "GI50", "setting": "[12]", "value": 3.24, "unit": "µM"}, {"measurement": "TGI", "setting": "[12]", "value": 6.7, "unit": "µM"}, {"measurement": "GI50", "setting": "[13]", "value": 4, "unit": "µM"}, {"measurement": "TGI", "setting": "[13]", "value": 7.38, "unit": "µM"}, {"measurement": "GI50", "setting": "[14]", "value": 3.59, "unit": "µM"}, {"measurement": "TGI", "setting": "[14]", "value": 6.84, "unit": "µM"}, {"measurement": "GI50", "setting": "[15]", "value": 3.68, "unit": "µM"}, {"measurement": "TGI", "setting": "[15]", "value": 6.97, "unit": "µM"}, {"measurement": "GI50", "setting": "[16]", "value": 3.6, "unit": "µM"}, {"measurement": "TGI", "setting": "[16]", "value": 6.83, "unit": "µM"}, {"measurement": "GI50", "setting": "[17]", "value": 3.81, "unit": "µM"}, {"measurement": "TGI", "setting": "[17]", "value": 7.05, "unit": "µM"}, {"measurement": "GI50", "setting": "[18]", "value": 4.19, "unit": "µM"}, {"measurement": "TGI", "setting": "[18]", "value": 7.93, "unit": "µM"}, {"measurement": "GI50", "setting": "[19]", "value": 3.49, "unit": "µM"}, {"measurement": "TGI", "setting": "[19]", "value": 6.74, "unit": "µM"}, {"measurement": "GI50", "setting": "[20]", "value": 3.93, "unit": "µM"}, {"measurement": "TGI", "setting": "[20]", "value": 7.32, "unit": "µM"}, {"measurement": "GI50", "setting": "[21]", "value": 2690, "unit": "nM"}, {"measurement": "TGI", "setting": "[21]", "value": 5.74, "unit": "µM"}, {"measurement": "GI50", "setting": "[22]", "value": 483, "unit": "nM"}, {"measurement": "TGI", "setting": "[22]", "value": 1300, "unit": "nM"}, {"measurement": "GI50", "setting": "[23]", "value": 2230, "unit": "nM"}, {"measurement": "TGI", "setting": "[23]", "value": 5.25, "unit": "µM"}, {"measurement": "GI50", "setting": "[24]", "value": 3.13, "unit": "µM"}, {"measurement": "TGI", "setting": "[24]", "value": 7.61, "unit": "µM"}, {"measurement": "GI50", "setting": "[25]", "value": 3.66, "unit": "µM"}, {"measurement": "TGI", "setting": "[25]", "value": 7.28, "unit": "µM"}, {"measurement": "GI50", "setting": "[26]", "value": 1810, "unit": "nM"}, {"measurement": "TGI", "setting": "[26]", "value": 5.47, "unit": "µM"}, {"measurement": "GI50", "setting": "[27]", "value": 3.95, "unit": "µM"}, {"measurement": "TGI", "setting": "[27]", "value": 7.59, "unit": "µM"}, {"measurement": "GI50", "setting": "[28]", "value": 4.02, "unit": "µM"}, {"measurement": "TGI", "setting": "[28]", "value": 7.4, "unit": "µM"}, {"measurement": "GI50", "setting": "[29]", "value": 2790, "unit": "nM"}, {"measurement": "TGI", "setting": "[29]", "value": 5.75, "unit": "µM"}]}]}
